Test results from US6458978B1, “Fluorous phosphines and process for their preparation” (Atofina Vlissingen B.V., priority 1998, dated 2002).
Marks after values point to notes of the source that are not given here.

Tests used:
[1] = Hydrogenation of 1-octene under single phase conditions in α,α,α-trifluorotoluene; conditions: [Rh] 4.0 mM, [1-octene] 1.46 M; T = 80° C., p(H2) = 1 bar, α,α,α-trifluorotoluene
Experimental: To be able to directly compare the activities of fluorous derivatives H{1,6} and H{1,8} with non-fluorous [P(C6H4-4-SiMe3)3]3RhCl (H{0}) and the conventional Wilkinson catalyst (PPh3)3RhCl, homogeneous hydrogenation of 1-octene were carried out under single phase conditions in the hybrid solvent α,α,α-trifluorotoluene at atmospheric H2 pressures. Highest rates of hydrogen uptake (14.2 mol.L^−1.h^−1) were measured for 1c at relatively high rhodium and olefine concentrations (entry 2, Table 7). Under these conditions a zero-order dependence in [1-octene] was found up to ca 80% conversion resulting in a linear conversion versus time plot. In all other experiments ([Rh]=4.0-8.0 mM, [1-octene]0=1.46 M) rates of hydrogen uptake were lower (<11 mol.L^−1.h^−1) and conversion versus time plots corresponded to a rate law -d[1-octene]/dt=kobs.[1-octene] for >98% conversion allowing to evaluate catalyst activity in terms of the observed first order rate constant kobs. Since for these experiments the rates of dihydrogen uptake were well below the maximum value obtained in entry 2, diffusion limitation of H2 can be excluded. In addition to kobs, turn over frequencies (TOF in mol.mol^−1.h^−1) were derived from the tangent of a 4^thorder polynomal fit to conversion versus time plots at 25% conversion and serve as a measure of catalyst activity independent of any assumed kinetic relationship with substrate.
Catalytic reactions were carried out under single phase conditions in CF3C6H5 at 80° C. under 1 bar of hydrogen pressure. After >90% conversion (monitored by the H2 uptake) volatiles were distilled off and analyzed by GC. Activities (TOF) were determined for 25% conversion.

[2] = hydrogenation of 1-heptene in benzene; cited from earlier work
[3] = Solubility of dppe and dppe derivatives G{m,x} in perfluorinated and non-fluorinated solvents; type: physicochemical
[4] = Rhodium catalyzed hydrogenation of 1-octene under single phase fluorous conditions with catalyst recycling; conditions: for TOF50% / TON (cumulative) / conv.: p(H2) = 1 bar
Experimental: (Table 5). In this respect compounds H{1,6} and H{1,8} are true fluorous equivalents of the classical Wilkinson's hydrogenation catalyst (PPh3)3RhCl. The hydrogenation products were readily isolated from the catalyst layer by cooling of the reaction mixture to 0° C. followed by phase separation of the resulting biphasic system. In this way hydrogenation of 1-octene afforded n-octane in >95% yield (GC, GC-MS). Less than 4.3% internal olefins resulting from isomerization were present. In case of H{1,8} it was possible to recycle the fluorous catalyst layer multiple times allowing high turnover numbers and high conversions per cycle (Table 5 and FIG. 5).
20. Rhodium Catalyzed Hydrogenation Reactions
The catalytic experiments were carried out in a 30 mL Schienk flask, under dihydrogen atmosphere (1 bar). The catalyst was either dissolved in a hydrogen saturated toluene or perfluoro solvent and the mixture was stirred with a magnetic stirring bar (900 rpm). The olefinic substrate was added after initial dihydrogen uptake had ceased. The dihydrogen uptake was monitored using two mineral oil filled gas burettes. During the hydrogenation reactions one burette was opened to the reaction vessel while the other was recharged with dihydrogen.
(§1) Only catalysts prepared through method 1 were used. Catalytic reactions were carried out under single phase fluorous conditions in c-CF3C6F11 (2 mL) at 80° C. After >90% conversion (monitored by the H2 uptake) the homogeneous reaction mixture was cooled to 0° C. and the upper organic layer was siphoned of. In between cycles the fluorous layer was kept under H2 atmosphere. By warming up to 80° C. and addition of a fresh portion of 1-octene (12.74 mmol) a new cycle was started. The organic phases resulting from the first cycle were analyzed by GC and ICP-AAS.

[5] = Leaching of rhodium and phosphorus into the organic product phase and partitioning of rhodium species (ICP-AAS); conditions: fluorous biphasic product mixture from hydrogenation of 1-octene
Description: Rhodium leaching into the organic phase (as determined by ICP-AAS) was low. On average 0.12% of Rh per cycle was lost corresponding to a rhodium concentration of 3 ppm (by weight) in the product phase. Over 9 cycles only 1% of rhodium was lost despite of the phase separation method used. Leaching was higher for less fluorous pre-catalyst H{1,6}: 0.3% (6 ppm) of rhodium was present in the organic phase after phase separation.
The amount of leached rhodium allows to calculate the average partition coefficients (P) of the rhodium species present during phase separation (Table 6). […] Chem. Soc. 1999, 121, 2696-2704.). […] Chem. Int. Ed. Engl. 1997, 36, 1610-1612).
The retention of free uncoordinated fluorous phosphine can be used for recycling the intact catalyst system.
as §1

[6] = c-C6F11CF3/toluene at 27° C.; cited from earlier work
[7] = cycle 1, c-CF3C6F11, 80° C., [1-octene]/[Rh] = 559, [Rh]0 = 0.0060M
[8] = cycle 1, c-CF3C6F11, 80° C., [1-octene]/[Rh] = 365
[9] = cycle 2, c-CF3C6F11, 80° C., [1-octene]/[Rh] = 365
[10] = cycle 3, c-CF3C6F11, 80° C., [1-octene]/[Rh] = 365
[11] = cycle 4, c-CF3C6F11, 80° C., [1-octene]/[Rh] = 365
[12] = cycle 5, c-CF3C6F11, 80° C., [1-octene]/[Rh] = 365
[13] = cycle 6, c-CF3C6F11, 80° C., [1-octene]/[Rh] = 365
[14] = cycle 7, c-CF3C6F11, 80° C., [1-octene]/[Rh] = 365
[15] = cycle 8, c-CF3C6F11, 80° C., [1-octene]/[Rh] = 365
[16] = cycle 9, fresh c-CF3C6F11 added as compensation for losses of fluorous solvent, 80° C.

In the case of `[Cl-].[Rh].c1ccc(P(c2ccccc2)c2ccccc2)cc1.c1ccc(P(c2ccccc2)c2ccccc2)cc1.c1ccc(P(c2ccccc2)c2ccccc2)cc1` [(PPh3)3RhCl], the “TOF(25%), turn over frequency at 25% conversion” value (shortened to “TOF(25%), turn over frequency”) [1] is reported as 960 h⁻¹, the “TON (mole of olefin/mole of Rh)” value [1] is reported as 358 and the conversion [1] is reported as 98%. For the same molecule, the “kobs (first order rate constant)” value [1] was 4.0(1) h^−1 and the TOF [2] was 150 to 600 h⁻¹.

For `FC(F)(F)C(F)(F)C(F)(F)C(F)(F)C(F)(F)C(F)(F)CC[Si](CCC(F)(F)C(F)(F)C(F)(F)C(F)(F)C(F)(F)C(F)(F)F)(CCC(F)(F)C(F)(F)C(F)(F)C(F)(F)C(F)(F)C(F)(F)F)c1ccc(P(CCP(c2ccc([Si](CCC(F)(F)C(F)(F)C(F)(F)C(F)(F)C(F)(F)C(F)(F)F)(CCC(F)(F)C(F)(F)C(F)(F)C(F)(F)C(F)(F)C(F)(F)F)CCC(F)(F)C(F)(F)C(F)(F)C(F)(F)C(F)(F)C(F)(F)F)cc2)c2ccc([Si](CCC(F)(F)C(F)(F)C(F)(F)C(F)(F)C(F)(F)C(F)(F)F)(CCC(F)(F)C(F)(F)C(F)(F)C(F)(F)C(F)(F)C(F)(F)F)CCC(F)(F)C(F)(F)C(F)(F)C(F)(F)C(F)(F)C(F)(F)F)cc2)c2ccc([Si](CCC(F)(F)C(F)(F)C(F)(F)C(F)(F)C(F)(F)C(F)(F)F)(CCC(F)(F)C(F)(F)C(F)(F)C(F)(F)C(F)(F)C(F)(F)F)CCC(F)(F)C(F)(F)C(F)(F)C(F)(F)C(F)(F)C(F)(F)F)cc2)cc1` [G{3,6}], the “solubility at room temperature, THF” value [3] was “− (−: <0.01 g/ml)”, the “solubility at room temperature, toluene” value [3] was “− (−: <0.01 g/ml)” and the “solubility at room temperature, FC-72” value ([3]; FC-72: mixture of perfluorinated hexanes) was “+ (+: >0.1 g/ml)”.

In the case of `C[Si](C)(CCC(F)(F)C(F)(F)C(F)(F)C(F)(F)C(F)(F)C(F)(F)F)c1ccc([PH](c2ccc([Si](C)(C)CCC(F)(F)C(F)(F)C(F)(F)C(F)(F)C(F)(F)C(F)(F)F)cc2)(c2ccc([Si](C)(C)CCC(F)(F)C(F)(F)C(F)(F)C(F)(F)C(F)(F)C(F)(F)F)cc2)[Rh]([Cl])([PH](c2ccc([Si](C)(C)CCC(F)(F)C(F)(F)C(F)(F)C(F)(F)C(F)(F)C(F)(F)F)cc2)(c2ccc([Si](C)(C)CCC(F)(F)C(F)(F)C(F)(F)C(F)(F)C(F)(F)C(F)(F)F)cc2)c2ccc([Si](C)(C)CCC(F)(F)C(F)(F)C(F)(F)C(F)(F)C(F)(F)C(F)(F)F)cc2)[PH](c2ccc([Si](C)(C)CCC(F)(F)C(F)(F)C(F)(F)C(F)(F)C(F)(F)C(F)(F)F)cc2)(c2ccc([Si](C)(C)CCC(F)(F)C(F)(F)C(F)(F)C(F)(F)C(F)(F)C(F)(F)F)cc2)c2ccc([Si](C)(C)CCC(F)(F)C(F)(F)C(F)(F)C(F)(F)C(F)(F)C(F)(F)F)cc2)cc1` [H{1,6}, (D{1,6})3RhCl], the TOF50% [4, 7] is reported as 298 h⁻¹, the “TON (cumulative)” value [4, 7] is reported as 531 and the conv. ([4]; cycle 1, c-CF3C6F11, 80° C., containing 10 mol % of D{1,6}, [1-octene]/[Rh] = 559, [Rh]0 = 0.0060M) is reported as 95%. The “Average partitioning coefficient P of rhodium species” value (shortened to “Average partitioning coefficient P”) ([5]; T = 0° C.) was 293^b, the “Average partitioning coefficient P” value ([5]; T = 25° C.) was 76^b and the “TOF(25%), turn over frequency” value [1] was 1110 h⁻¹. The “TON (mole of olefin/mole of Rh)” value [1] was 363, the conversion [1] was 99% and the “kobs (first order rate constant)” value [1] was 4.2(1) h^−1.

For `C[Si](C)(CCC(F)(F)C(F)(F)C(F)(F)C(F)(F)C(F)(F)C(F)(F)C(F)(F)C(F)(F)F)c1ccc(P(c2ccc([Si](C)(C)CCC(F)(F)C(F)(F)C(F)(F)C(F)(F)C(F)(F)C(F)(F)C(F)(F)C(F)(F)F)cc2)c2ccc([Si](C)(C)CCC(F)(F)C(F)(F)C(F)(F)C(F)(F)C(F)(F)C(F)(F)C(F)(F)C(F)(F)F)cc2)cc1.C[Si](C)(CCC(F)(F)C(F)(F)C(F)(F)C(F)(F)C(F)(F)C(F)(F)C(F)(F)C(F)(F)F)c1ccc(P(c2ccc([Si](C)(C)CCC(F)(F)C(F)(F)C(F)(F)C(F)(F)C(F)(F)C(F)(F)C(F)(F)C(F)(F)F)cc2)c2ccc([Si](C)(C)CCC(F)(F)C(F)(F)C(F)(F)C(F)(F)C(F)(F)C(F)(F)C(F)(F)C(F)(F)F)cc2)cc1.C[Si](C)(CCC(F)(F)C(F)(F)C(F)(F)C(F)(F)C(F)(F)C(F)(F)C(F)(F)C(F)(F)F)c1ccc(P(c2ccc([Si](C)(C)CCC(F)(F)C(F)(F)C(F)(F)C(F)(F)C(F)(F)C(F)(F)C(F)(F)C(F)(F)F)cc2)c2ccc([Si](C)(C)CCC(F)(F)C(F)(F)C(F)(F)C(F)(F)C(F)(F)C(F)(F)C(F)(F)C(F)(F)F)cc2)cc1.[Cl][Rh]` [H{1,8}, (D{1,8})3RhCl], the “Drop of catalyst activity” value ([4]; 9th cycle, amount of c-C6F11CF3 restored to its initial volume) was 19%, the TOF50% [4, 8] was 177 h⁻¹ and the “TON (cumulative)” value [4, 8] was 337. The conv. ([4]; cycle 1, c-CF3C6F11, 80° C., [1-octene]/[Rh] = 365, [Rh] = 0.0087M in the initial cycle) was 92%, the TOF50% [4, 9] was 212 h⁻¹ and the “TON (cumulative)” value [4, 9] was 688. For the same molecule, the conv. [4, 9] was 96%, the TOF50% [4, 10] was 261 h⁻¹ and the “TON (cumulative)” value [4, 10] was 1048. The conv. [4, 10] was 99%, the TOF50% [4, 11] was 277 h⁻¹ and the “TON (cumulative)” value [4, 11] was 1383. For the same molecule, the conv. [4, 11] was 92%, the TOF50% [4, 12] was 304 h⁻¹ and the “TON (cumulative)” value [4, 12] was 1747. For the same molecule, the conv. [4, 12] was 99.8%, the TOF50% [4, 13] was 397 h⁻¹ and the “TON (cumulative)” value [4, 13] was 2100. The conv. [4, 13] was 96.8%, the TOF50% [4, 14] was 507 h⁻¹ and the “TON (cumulative)” value [4, 14] was 2444. For the same molecule, the conv. [4, 14] was 94%, the TOF50% [4, 15] was 617 h⁻¹ and the “TON (cumulative)” value [4, 15] was 2808. The conv. [4, 15] was 99.7%, the TOF50% [4, 16] was 142 h⁻¹ and the “TON (cumulative)” value [4, 16] was 3117. For the same molecule, the conv. [4, 16] was 85%, the “Average partitioning coefficient P” value ([5]; T = 0° C.) was 1052^c and the “TOF(25%), turn over frequency” value [1] was 870 h⁻¹. The “TON (mole of olefin/mole of Rh)” value [1] was 355, the conversion [1] was 99% and the “kobs (first order rate constant)” value [1] was 3.2(1) h^−1.

In the case of `FC(F)(F)C(F)(F)C(F)(F)C(F)(F)C(F)(F)C(F)(F)CCP(CCC(F)(F)C(F)(F)C(F)(F)C(F)(F)C(F)(F)C(F)(F)F)CCC(F)(F)C(F)(F)C(F)(F)C(F)(F)C(F)(F)C(F)(F)F` [P [(CH2)2(CF2)nCF3)3]3 (n=5)], the “Partition coefficient P” value [6] is listed as 82.

For `FC(F)(F)C(F)(F)C(F)(F)C(F)(F)C(F)(F)C(F)(F)CCP(CCC(F)(F)C(F)(F)C(F)(F)C(F)(F)C(F)(F)C(F)(F)F)CCC(F)(F)C(F)(F)C(F)(F)C(F)(F)C(F)(F)C(F)(F)F` [P [(CH2)2(CF2)nCF3)3]3 (n=7)], the “Partition coefficient P” value [6] is given as 332.
